How the values were obtained:
[1] = system: 3T3 Ras transformed fibroblast; test: In vitro test, neoplastic foci of 3T3 Ras transformed fibroblast; assay type: cell-based, mouse; conditions: 10^−6M, compared with untreated cell, FIG. 3
Experimental: When 3T3 Ras transformed fibroblast was cultured in 10% FBS-containing DMEM medium for 3 days, appearance of “foci” is observed as compared with non-transformed cell strains.
Each of 3T3 Ras transformed fibroblast (derived from mouse) or 3T3 fibroblast (derived from mouse) each is cultured at a concentration of 10,000 cell/ml in 10% FBS-containing DMEM medium for 1 day.
Thereafter, each cell is treated with 10^−5M 2,4,4-trimethyl-3-(15-hydroxypentadecyl)-2-cyclohexen-1-one for 6 days.
3T3 Ras transformed fibroblast or 3T3 fibroblast is cultured at a concentration of 10,000 cell/ml in 5% FBS-containing DMEM medium which contains 0.625% agar (DIFCO) and 10^−6 M 2,4,4-trimethyl-3-(15-hydroxypentadecyl)-2-cyclohexen-1-one.
(§1) The fibroblast transformed with Ras was treated with 2,4,4-trimethyl-3-(15-hydroxypentadecyl)-2-cyclohexen-1-one (10^−6M) and then compared with the untreated cell. Non-transformed cell strains (treated and untreated) were used as controls.

STAT3 = test: Western Blot of STAT3 phosphorylation; assay type: cell-based; conditions: 10^−8 M solution, compared with control without compound, FIG. 2
Experimental: After preparation of 2,4,4-trimethyl-3-(15-hydroxypentadecyl)-2-cyclohexen-1-one solution (10^−8 M), Western Blot was performed using STAT3 and phosphorylated STAT3 antibody (STAT3 antibody derived from rabbit, manufactured by Cell Signaling) to confirm the action of 2,4,4-trimethyl-3-(15-hydroxypentadecyl)-2-cyclohexen-1-one on STAT3 phosphorylation.

Notch1 [2] = test: Gene expression test, RT-PCR analysis of Notch1; assay type: cell-based, mouse, rat; conditions: treated relative to untreated cells, normalized toward GAPDH
Experimental: (§2) In ethanol, 2,4,4-trimethyl-3-(15-hydroxypentadecyl)-2-cyclohexen-1-one synthesized by the method described in JP-A-2000-297034 was dissolved to give a concentration of 10^−2 M. The solution was added to a culture solution in a desirable concentration to be final dilution of 1 μl/ml. At different times and different periods in cell culture, 2,4,4-trimethyl-3-(15-hydroxypentadecyl)-2-cyclohexen-1-one was added. […] Each experiment was repeated at least three times.
(§3) Protocol was adapted from Grandbarbe et al., Development (2003) 130, 1393-1402. When briefly explained, as described in Tropepe et al., Dev. Biol. (1999) 208, 166-188, primary neurospheres were prepared from telencephalon of wild-type embryo (E14.5) and were maintained as secondary neurospheres by continuous subculture in a serum-free medium (Reynolds and Weiss, Science (1992) 255, […]) containing 10 ng/ml EGF. After propagation for different times, 50 to 100 neurospheres were inoculated to a polyornithine (Sigma)-coated cover slip in the presence of 2 ng/ml EGF and 0.5% FBS and differentiated. […]
(§4) Typical cycle conditions were 94° C. for 30 seconds, 55° C. for 30 seconds, and 72° C. for 30 seconds except for HES-5 whose program was 94° C. for 30 seconds, 63° C. for 30 seconds, and 72° C. for 2 minutes. […] The relative amount of mRNA was quantitatively determined in accordance with BabyImager analysis and NIHimage 1.36.

[3] = system: Notch receptors (Notch 2 to 4); test: Gene expression test, RT-PCR analysis of the other Notch receptors; assay type: cell-based, mouse, rat; conditions: treated relative to untreated cells, normalized toward GAPDH
Experimental: as §2, §3, §4

HES5 = test: Gene expression test, RT-PCR analysis of HES5; assay type: cell-based, mouse, rat; conditions: treated relative to untreated cells, normalized toward GAPDH
Experimental: as §2, §3, §4

[4] = system: 3T3 Ras transformed fibroblast; test: Ex vivo test, tumor size after injection of 3T3 Ras transformed fibroblast into Swiss Nu/Nu mouse; assay type: in vivo; conditions: cells pretreated 3 days, intraperitoneal on days 2, 8 and 15, FIG. 4
Experimental: In a test tube for 3 days, 3T3 Ras transformed fibroblast (derived from mouse) or 3T3 fibroblast (derived from mouse) was treated with applying 50 μl (10^−3 M) of 2,4,4-trimethyl-3-(15-hydroxypentadecyl)-2-cyclohexen-1-one. The cell ([…]) was again suspended in 400 μl of DMEM medium and 200 μl thereof was injected into 7 weeks-old Swiss Nu/Nu mouse (male) symmetrically. On second, eighth, and fifteenth days after injection, 2,4,4-trimethyl-3-(15-hydroxypentadecyl)-2-cyclohexen-1-one was intraperitoneally administrated into mouse.

Notch1 [5] = test: Notch1 expression in cell strain transformed with Ras; assay type: cell-based, mouse; conditions: fibroblast transformed with Ras, 10^−6M
Experimental: as §1

CC1=C(CCCCCCCCCCCCCCCO)C(C)(C)CCC1=O [2,4,4-trimethyl-3-(15-hydroxypentadecyl)-2-cyclohexen-1-one]
neoplastic foci of the cell strain transformed with Ras [1]: reduced
STAT3 phosphorylation (band of P-STAT3) (STAT3): suppressed
levels of mRNA of Notch1 (Notch1 [2]): always decreased
expression levels of the other Notch receptors (Notch 2 to 4) [3]: not changed
levels of mRNA of HES5 (HES5): always decreased
tumor size [4]: reduced
Notch1 expression (Notch1 [5]): decrease

Source: patent US7888395B2, “STAT3 phosphorylation inhibitor and notch1 expression inhibitor” (Meiji Dairies Corporation, priority 2004, dated 2011)
